{"source": "patent US9918950B2", "about": "“Targeted treatment of anerobic cancer” (University Hospitals Cleveland Medical Center, priority 2012, dated 2018)", "origin": "cited, not measured here", "key": {"[1]": {"tested_on": "4T1 mouse mammary carcinoma cells", "conditions": "4T1 window chamber tumors"}, "[2]": {"tested_on": "HCT116 human colon carcinoma cells", "conditions": "HCT116 window chamber tumors"}}}
{"smiles": "Nc1n[n+]([O-])c2ccccc2[n+]1[O-]", "note": "[tirapazamine]", "values": [{"measurement": "time required for incipient angiogenesis versus saline treatment", "setting": "[1]; n=8, log-rank P=0.66", "result": "No significant difference"}, {"measurement": "median time required for the initial hypoxic response", "setting": "[1]; versus 4 days saline, n=8, P<0.05", "result": 5.5, "unit": "days"}, {"measurement": "time required for onset of incipient angiogenesis versus saline treatment", "setting": "[2]; n=8, log-rank P=0.33", "result": "No significant difference"}, {"measurement": "median time required for the initial hypoxic response", "setting": "[2]; versus 3.5 days saline, Kaplan-Meier, n=8, P<0.001", "result": 9.5, "unit": "days"}]}
